Read-outs that look alike come from different tables or passages of the source. Values belong to the molecule of their own block, whether it stands above or below them. Numbered stars: 1 amine (or outer) side, 2 acyl side, 3 side chain; on linkers, the order of the positions; unused ones are H or OH. Bridge positions count the residues as written; N and C are the ends. Square brackets hold non-standard residues; d marks the D form. Peptide text beside a SMILES is read from it. * marks the point of attachment. DOTA = O=C(O)CN1CCN(CC(=O)O)CCN(CC(=O)*)CCN(CC(=O)O)CC1; Ala(quinolin-3-yl) = N[C@@H](Cc1cnc2ccccc2c1)C(=O)O; Phe(3-CN) = N#Cc1cccc(C[C@H](N)C(=O)O)c1; Phe(4-Cl) = N[C@@H](Cc1ccc(Cl)cc1)C(=O)O; Isobutyryl(2-OH) = CC(C)(O)C(=O)*; NMeR = CN[C@@H](CCCNC(=N)N)C(=O)O; X1 = O=C(CC1CCN([*:1])CC1)[*:2]; Cit = NC(=O)NCCC[C@H](N)C(=O)O; Tle = CC(C)(C)[C@H](N)C(=O)O; Nle = CCCC[C@H](N)C(=O)O; Aib = CC(C)(N)C(=O)O; Sar = CNCC(=O)O
Experiments:
[1] = target: T1, PSMA-expressing C4-2 cells (Homo sapiens, UniProt Q04609); test: FACS binding assay (competition with 50 nM PSM-0183); conditions: read-out: pIC50 [C4-2] CAT (converted)
T1 construct: PSMA-expressing C4-2 cells (ATCC, Cat. No. CRL-3314) were cultured in RPMI-1640; host or cells: C4-2 cells
T1 sequence (Q04609 whole entry): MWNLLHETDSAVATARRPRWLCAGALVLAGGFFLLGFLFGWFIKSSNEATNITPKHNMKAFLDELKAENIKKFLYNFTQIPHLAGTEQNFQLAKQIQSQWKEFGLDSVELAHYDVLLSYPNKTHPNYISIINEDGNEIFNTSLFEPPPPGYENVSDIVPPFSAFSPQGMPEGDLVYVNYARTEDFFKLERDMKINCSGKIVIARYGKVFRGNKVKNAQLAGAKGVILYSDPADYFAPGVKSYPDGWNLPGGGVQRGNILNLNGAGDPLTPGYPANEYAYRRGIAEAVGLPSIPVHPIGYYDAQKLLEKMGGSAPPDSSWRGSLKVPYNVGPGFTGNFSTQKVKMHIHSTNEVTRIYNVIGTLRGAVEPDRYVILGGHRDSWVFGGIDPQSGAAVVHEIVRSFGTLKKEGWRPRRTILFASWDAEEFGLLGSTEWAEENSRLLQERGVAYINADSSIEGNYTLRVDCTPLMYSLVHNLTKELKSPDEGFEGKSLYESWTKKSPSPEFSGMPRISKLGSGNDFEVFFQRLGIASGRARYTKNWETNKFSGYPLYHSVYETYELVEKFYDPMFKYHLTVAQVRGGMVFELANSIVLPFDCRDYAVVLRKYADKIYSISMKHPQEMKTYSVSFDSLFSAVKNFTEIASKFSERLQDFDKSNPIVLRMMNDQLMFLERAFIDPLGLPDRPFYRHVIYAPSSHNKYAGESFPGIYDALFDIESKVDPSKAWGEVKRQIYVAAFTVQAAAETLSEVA
Outline: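 Competition format: fluorescent tracer PSM-0183 (50 nM) displaced from PSMA on C4-2 cells by a test compound titration over 1 h at 4 °C. Bound tracer was quantified as flow-cytometric AF488 median fluorescence after washing. Four-parameter logistic fits of MFI data gave IC50 and pIC50.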

[2] = target: T2, Fc-fusion protein of human PSMA (hPSMA-Fc) (Homo sapiens, UniProt Q04609); test: Surface plasmon resonance assay (Biacore T200, single cycle kinetic); format: binding; conditions: read-out: pKD CAT (converted)
T2 construct: purchased Acro Biosystems PSA-H5264
T2 sequence (Q04609 44-750 limits assumed): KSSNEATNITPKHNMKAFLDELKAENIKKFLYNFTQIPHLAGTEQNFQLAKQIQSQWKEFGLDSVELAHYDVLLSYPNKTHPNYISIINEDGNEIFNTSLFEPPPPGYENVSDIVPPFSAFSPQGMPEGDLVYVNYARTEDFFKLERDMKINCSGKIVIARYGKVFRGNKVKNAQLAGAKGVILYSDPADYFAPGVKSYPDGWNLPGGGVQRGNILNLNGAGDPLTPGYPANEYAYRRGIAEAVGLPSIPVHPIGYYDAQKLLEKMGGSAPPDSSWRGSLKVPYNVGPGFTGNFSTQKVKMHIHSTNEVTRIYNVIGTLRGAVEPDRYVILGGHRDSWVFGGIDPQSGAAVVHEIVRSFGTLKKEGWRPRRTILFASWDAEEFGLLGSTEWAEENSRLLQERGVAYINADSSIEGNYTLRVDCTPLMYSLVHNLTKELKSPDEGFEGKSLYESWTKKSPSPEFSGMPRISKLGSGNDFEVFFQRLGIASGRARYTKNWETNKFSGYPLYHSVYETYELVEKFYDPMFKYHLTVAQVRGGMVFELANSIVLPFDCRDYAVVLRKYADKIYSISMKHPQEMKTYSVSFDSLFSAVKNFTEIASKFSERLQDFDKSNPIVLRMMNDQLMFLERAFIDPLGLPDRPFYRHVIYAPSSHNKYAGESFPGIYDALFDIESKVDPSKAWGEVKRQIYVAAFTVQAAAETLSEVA
Outline: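 KD, expressed as pKD, came from 1:1 Langmuir fits of reference- and buffer-blank-subtracted SPR data. The runs were single-cycle kinetics at 25° C in HBST/0.1% DMSO over human PSMA-Fc, captured to ~1000 RU on a peptide-coated CM5 surface and regenerated with 10 mM glycine pH 1.5.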

[3] = FACS binding, PSMA-expressing C4-2 cells, pIC50 category
[4] = PSMA SPR assay, hPSMA-Fc, 25° C., pKD category
[5] = pIC50 category of FACS binding, C4-2 cells
[6] = pKD category for PSMA SPR activity assay, hPSMA-Fc, 25° C.
[7] = FACS binding, C4-2 cells, competition with 50 nM PSM-0183, category
[8] = SPR, hPSMA-Fc, single cycle kinetic, 25° C., category

Structure (SMILES): C[C@@H](O)[C@H](NC(=O)[C@@H](NC(=O)[C@@H]1CSSC[C@H](NC(=O)[C@H](Cc2ccc(Cl)cc2)NC(=O)C(C)(C)NC(=O)[C@@H](NC(=O)CC2CCN(C(=O)CN3CCN(CC(=O)O)CCN(CC(=O)O)CCN(CC(=O)O)CC3)CC2)[C@@H](C)O)C(=O)N[C@@H](CCCCN)C(=O)N(C)[C@@H](CCCNC(=N)N)C(=O)NC(C)(C)C(=O)N[C@@H](CC(N)=O)C(=O)N1)C(C)(C)C)C(N)=O [PSM-0340, DOTA-Cmp-Thr-Aib-Pcf-[Cys-Lys-Nmr-Aib-Asn-Cys]-Tle-Thr-NH2] ({DOTA}-[X1]T[Aib][Phe(4-Cl)]CK[NMeR][Aib]NC[Tle]T-NH2; disulfide 5-10)
- IC50 [1, 3]: 200 to 1260 nM
- Kd [2, 4]: < 12.6 nM

Structure (SMILES): CC(=O)N[C@H](C(=O)NC(C)(C)C(=O)N[C@@H](Cc1ccccc1)C(=O)N[C@H]1CSSC[C@@H](C(=O)N[C@H](C(=O)N[C@H](C(N)=O)[C@@H](C)O)C(C)(C)C)NC(=O)[C@H](CC(N)=O)NC(=O)CN(C)C(=O)[C@H](CCCNC(=N)N)NC(=O)[C@H](CCCCN)NC1=O)[C@@H](C)O [PSM-0232, Ac-Thr-Aib-Phe-[Cys-Lys-Arg-Nmg-Asn-Cys]-Tle-Thr-NH2] (Ac-T[Aib]FCKR[Sar]NC[Tle]T-NH2; disulfide 4-9)
- IC50 [1, 7]: < 200 nM
- Kd [2, 8]: < 12.6 nM

Structure (SMILES): C[C@@H](O)[C@H](NC(=O)[C@@H](NC(=O)[C@@H]1CSSC[C@H](NC(=O)[C@H](Cc2cnc3ccccc3c2)NC(=O)C(C)(C)NC(=O)[C@@H](NC(=O)CC2CCN(C(=O)CN3CCN(CC(=O)O)CCN(CC(=O)O)CCN(CC(=O)O)CC3)CC2)[C@@H](C)O)C(=O)N[C@@H](CCCCN)C(=O)N[C@@H](CCCNC(N)=O)C(=O)NC(C)(C)C(=O)N[C@@H](CC(N)=O)C(=O)N1)C(C)(C)C)C(N)=O [PSM-0333, DOTA-Cmp-Thr-Aib-2Qi-[Cys-Lys-Cit-Aib-Asn-Cys]-Tle-Thr-NH2] ({DOTA}-[X1]T[Aib][Ala(quinolin-3-yl)]CK[Cit][Aib]NC[Tle]T-NH2; disulfide 5-10)
- IC50 [1, 3]: > 3160 nM
- Kd [2, 4]: > 501 nM

Structure (SMILES): CCCC[C@@H]1NC(=O)[C@@H](NC(=O)[C@H](Cc2ccc(Cl)cc2)NC(=O)C(C)(C)NC(=O)[C@@H](NC(C)=O)[C@@H](C)O)CSSC[C@@H](C(=O)N[C@H](C(=O)N[C@H](C(N)=O)[C@@H](C)O)C(C)(C)C)NC(=O)[C@H](CC(N)=O)NC(=O)C(C)(C)NC(=O)[C@H](CCCNC(=N)N)NC1=O [PSM-0205, Ac-Thr-Aib-Pcf-[Cys-Nle-Arg-Aib-Asn-Cys]-Tle-Thr-NH2] (Ac-T[Aib][Phe(4-Cl)]C[Nle]R[Aib]NC[Tle]T-NH2; disulfide 4-9)
- IC50 [1, 7]: < 200 nM
- Kd [2, 8]: < 12.6 nM

More lines, now with the values ahead:

- IC50 ([1]; FACS binding, C4-2 cells, category): < 200 nM
- Kd ([2]; PSMA SPR assay, category): < 12.6 nM
Structure (SMILES): CC(=O)NC(C)(C)C(=O)N[C@@H](Cc1ccc(Cl)cc1)C(=O)N[C@H]1CSSC[C@@H](C(=O)N[C@H](C(=O)N[C@H](C(N)=O)[C@@H](C)O)C(C)(C)C)NC(=O)[C@H](CC(N)=O)NC(=O)C(C)(C)NC(=O)[C@H](CCCNC(=N)N)NC(=O)[C@H](CCCCN)NC1=O [PSM-0559, Ac-Aib-Pcf-[Cys-Lys-Arg-Aib-Asn-Cys]-Tle-Thr-NH2] (Ac-[Aib][Phe(4-Cl)]CKR[Aib]NC[Tle]T-NH2; disulfide 3-8)

- IC50 [1, 5]: < 200 nM
- Kd [2, 6]: < 12.6 nM
Structure (SMILES): CC(=O)N[C@H](C(=O)NC(C)(C)C(=O)N[C@@H](Cc1cccc(C#N)c1)C(=O)N[C@H]1CSSC[C@@H](C(=O)N[C@H](C(=O)N[C@H](C(N)=O)[C@@H](C)O)C(C)(C)C)NC(=O)[C@H](CC(N)=O)NC(=O)C(C)(C)NC(=O)[C@H](CCCNC(=N)N)NC(=O)[C@H](CCCCN)NC1=O)[C@@H](C)O [PSM-0555, Ac-Thr-Aib-Mnf-[Cys-Lys-Arg-Aib-Asn-Cys]-Tle-Thr-NH2] (Ac-T[Aib][Phe(3-CN)]CKR[Aib]NC[Tle]T-NH2; disulfide 4-9)

- IC50 [1, 5]: < 200 nM
- Kd [2, 6]: 12.6 to 126 nM
Structure (SMILES): C[C@@H](O)[C@H](NC(=O)[C@@H](NC(=O)[C@@H]1CSSC[C@H](NC(=O)[C@H](Cc2ccc(Cl)cc2)NC(=O)C(C)(C)O)C(=O)N[C@@H](CCCCN)C(=O)N[C@@H](CCCNC(=N)N)C(=O)NC(C)(C)C(=O)N[C@@H](CC(N)=O)C(=O)N1)C(C)(C)C)C(N)=O [PSM-0461, Hib-Pcf-[Cys-Lys-Arg-Aib-Asn-Cys]-Tle-Thr-NH2] ({Isobutyryl(2-OH)}-[Phe(4-Cl)]CKR[Aib]NC[Tle]T-NH2; disulfide 2-7)

- IC50 [1, 3]: > 3160 nM
- Kd [2, 4]: > 501 nM
Structure (SMILES): CC(=O)N[C@H](C(=O)NC(C)(C)C(=O)N[C@@H](Cc1ccccc1)C(=O)N[C@@H]1CSSC[C@@H](C(=O)N[C@H](C(=O)N[C@H](C(N)=O)[C@@H](C)O)C(C)(C)C)NC(=O)[C@H](CC(N)=O)NC(=O)C(C)(C)NC(=O)[C@H](CCCNC(=N)N)NC(=O)[C@H](CCCCN)NC1=O)[C@@H](C)O [PSM-0348, Ac-Thr-Aib-Phe-[cys-Lys-Arg-Aib-Asn-Cys]-Tle-Thr-NH2] (Ac-T[Aib]F[dC]KR[Aib]NC[Tle]T-NH2; disulfide 4-9)

Source: patent US20260083865A1, “PROSTATE SPECIFIC MEMBRANE ANTIGEN (PSMA) LIGANDS AND USE THEREOF” (priority 2022, published 2026)
